This is an account of results in paper PMC10038056, “Synthesis, biological evaluation and theoretical studies of (E)-1-(4-sulfamoyl-phenylethyl)-3-arylidene-5-aryl-1H-pyrrol-2(3H)-ones as human carbonic anhydrase inhibitors” (Journal of Enzyme Inhibition and Medicinal Chemistry, 2023).

Series [1] has as its target hCA I (Homo sapiens, UniProt P00915). The experiment in a line: Stopped-flow CO2 hydrase assay, hCA I.
Method: (§1) (AAZ), a commonly used sulphonamide inhibitor was used for comparing the inhibition data. The Inhibition effects of these compounds on enzyme activities were evaluated under in-vitro conditions. The CA catalysed CO2 hydration activity was measured using an Applied Photophysics stopped-flow instrument. […] In the same way, the uncatalyzed rates were analysed and deducted from the total measured rates. […] The inhibitor and enzyme solutions were preincubated at room temperature for 15 min prior to the experiment to promote the formation of the E-I complex. By employing nonlinear least-squares methods using PRISM 3 and the Cheng-Prusoff equation, the inhibition constants were determined, as was previously reported[18–20]^,[21] and indicate the average of at least three separate measurements that fall between the range of 5 and 10%.
For series [2], the target named is hCA II (Homo sapiens, UniProt P00918). Put plainly: Stopped-flow CO2 hydrase assay, hCA II.
Method: as §1
Series [3] deals with hCA IX (Homo sapiens, UniProt Q16790). The experiment in a line: Stopped-flow CO2 hydrase assay, hCA IX.
Method: as §1
The target in series [4] is hCA XII (Homo sapiens, UniProt O43570). The experiment in a line: Stopped-flow CO2 hydrase assay, hCA XII.
Sequence of hCA XII (O43570 25-354): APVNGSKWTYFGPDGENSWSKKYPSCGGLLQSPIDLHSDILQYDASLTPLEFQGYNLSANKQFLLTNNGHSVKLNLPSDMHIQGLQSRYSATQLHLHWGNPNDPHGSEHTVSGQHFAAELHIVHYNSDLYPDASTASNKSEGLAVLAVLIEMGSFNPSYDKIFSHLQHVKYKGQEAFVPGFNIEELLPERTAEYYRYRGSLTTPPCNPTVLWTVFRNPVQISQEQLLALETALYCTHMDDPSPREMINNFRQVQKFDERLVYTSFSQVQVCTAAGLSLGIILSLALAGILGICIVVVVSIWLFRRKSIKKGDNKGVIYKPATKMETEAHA
Method: as §1
Where [5] appears, read: stopped flow, mean from 3 assays, errors 5–10%.

Sequence of hCA I (P00915 whole entry): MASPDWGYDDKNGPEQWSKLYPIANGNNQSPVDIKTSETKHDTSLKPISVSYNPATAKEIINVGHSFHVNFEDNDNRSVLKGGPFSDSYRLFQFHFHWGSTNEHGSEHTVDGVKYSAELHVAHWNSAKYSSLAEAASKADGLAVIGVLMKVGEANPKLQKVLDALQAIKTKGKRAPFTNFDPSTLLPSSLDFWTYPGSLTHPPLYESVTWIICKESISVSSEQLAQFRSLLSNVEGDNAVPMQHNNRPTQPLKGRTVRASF

One may read the melting point as the temperature, or range, at which the solid turns liquid. As usually defined, the Ki is a dissociation constant, usually derived from enzyme kinetics or from competition with a known ligand. Low values mean higher affinity, high ones lower affinity. In turn, `CC(C)(C)c1ccc(C2=C/C(=C\c3ccc(Br)cc3)C(=O)N2CCc2ccc(S(N)(=O)=O)cc2)cc1` [Compound 3t, (E)-4-(2-(3-(4-bromobenzylidene)-5-(4-(tert-butyl)phenyl)-2-oxo-2,3-dihydro-1H-pyrrol-1-yl)ethyl)benzenesulphonamide] came in with a melting point of 204 to 205 °C. In addition, the affinity in series [1] (in µM), expressed as Ki, was 9.3 µM. In series [1] (setting [5]), this molecule had a Ki of 9.27 µM. The Ki in series [2] came to 4690 nM. This molecule also showed a Ki in series [3] of 391 nM. Further, in series [4] (setting [5]), the Ki turned out to be 0.308 µM.
As to `CCc1ccc(C2=C/C(=C\c3ccccc3)C(=O)N2CCc2ccc(S(N)(=O)=O)cc2)cc1` [Compound 3i, (E)-4-(2-(3-benzylidene-5-(4-ethylphenyl)-2-oxo-2,3-dihydro-1H-pyrrol-1-yl)ethyl)benzenesulphonamide], the melting point was 183 to 184 °C. In series [1] (setting [5]), the inhibition constant (Ki) is 1.79 µM. For the same molecule, in series [2], the Ki was determined as 901 nM. Further, in series [3], the affinity corresponds to a Ki of 78.3 nM. Also, the Ki in series [4] (setting [5]) is 0.0839 µM.
As for `CCc1ccc(C2=C/C(=C\c3ccc(F)cc3)C(=O)N2CCc2ccc(S(N)(=O)=O)cc2)cc1` [Compound 3j, (E)-4-(2-(5-(4-ethylphenyl)-3-(4-fluorobenzylidene)-2-oxo-2,3-dihydro-1H-pyrrol-1-yl)ethyl)benzenesulphonamide], the melting point was in the range of 185 to 186 °C. The affinity in series [1] (setting [5]) corresponds to a Ki of 0.836 µM. The same molecule registered a Ki in series [2] of 296 nM. Also, in series [3], the Ki was 71.4 nM. The affinity in series [4] (setting [5]), expressed as Ki, was 0.0662 µM.
In turn, `Cc1ccc(C2=C/C(=C\c3ccc(Br)cc3)C(=O)N2CCc2ccc(S(N)(=O)=O)cc2)cc1` [Compound 3h, (E)-4-(2-(3-(4-bromobenzylidene)-2-oxo-5-(p-tolyl)-2,3-dihydro-1H-pyrrol-1-yl)ethyl)benzenesulphonamide] displayed a melting point of 233 to 234 °C. This molecule also gave a Ki in series [1] (setting [5]) of 4.19 µM. In series [2], this molecule registered a Ki of 1870 nM. In series [3], this molecule displayed a Ki of 84.2 nM. In series [4] (setting [5]), this molecule yielded a Ki of 0.094 µM.
For the molecule `Cc1ccc(C2=C/C(=C\c3ccc(F)cc3)C(=O)N2CCc2ccc(S(N)(=O)=O)cc2)cc1` [Compound 3f, (E)-4-(2-(3-(4-fluorobenzylidene)-2-oxo-5-(p-tolyl)-2,3-dihydro-1H-pyrrol-1-yl)ethyl)benzenesulphonamide], the melting point fell in the range of 196 to 197 °C. This molecule had a Ki in series [1] (setting [5]) of 2.53 µM. The affinity in series [2], expressed as Ki, was 147 nM. This molecule also had a Ki in series [3] of 103 nM. The Ki in series [4] (setting [5]) was 0.0427 µM.
On to `NS(=O)(=O)c1ccc(CCN2C(=O)/C(=C/c3ccc(F)cc3)C=C2c2ccccc2)cc1` [Compound 3b, (E)-4-(2-(3-(4-fluorobenzylidene)-2-oxo-5-phenyl-2,3-dihydro-1H-pyrrol-1-yl)ethyl)benzenesulphonamide], for which the melting point was in the range of 170 to 171 °C. The molecule also had a Ki in series [1] (setting [5]) of 0.369 µM. Besides, the affinity in series [2] corresponds to a Ki of 81.4 nM. In series [3], this molecule gave a Ki of 72.7 nM. This molecule also gave a Ki in series [4] (setting [5]) of 0.0456 µM.
For the molecule `CC(C)(C)c1ccc(C2=C/C(=C\c3ccc(Cl)cc3)C(=O)N2CCc2ccc(S(N)(=O)=O)cc2)cc1` [Compound 3s, (E)-4-(2-(5-(4-(tert-butyl)phenyl)-3-(4-chlorobenzylidene)-2-oxo-2,3-dihydro-1H-pyrrol-1-yl)ethyl)benzenesulphonamide], the melting point was in the range of 196 to 197 °C. The Ki in series [1] (setting [5]) worked out at 7.93 µM. In addition, the Ki in series [2] came out at 4360 nM. In series [3], this molecule had a Ki of 432 nM. This molecule returned a Ki in series [4] (in µM) of 0.34 µM. The molecule also gave a Ki in series [4] (setting [5]) of 0.342 µM.
In turn, `NS(=O)(=O)c1ccc(CCN2C(=O)/C(=C/c3ccc(Cl)cc3)C=C2c2ccc(Cl)cc2)cc1` [Compound 3o, (E)-4-(2-(3-(4-chlorobenzylidene)-5-(4-chlorophenyl)-2-oxo-2,3-dihydro-1H-pyrrol-1-yl)ethyl)benzenesulphonamide] gave a melting point of 163 to 164 °C. Further, the Ki in series [1] (setting [5]) came to 5.09 µM. This molecule had a Ki in series [2] of 1890 nM. Further, the Ki in series [3] stood at 68.9 nM. This molecule also gave a Ki in series [4] (setting [5]) of 0.0789 µM.
The like results for `CCc1ccc(C2=C/C(=C\c3ccc(Br)cc3)C(=O)N2CCc2ccc(S(N)(=O)=O)cc2)cc1` [Compound 3l, (E)-4-(2-(3-(4-bromobenzylidene)-5-(4-ethylphenyl)-2-oxo-2,3-dihydro-1H-pyrrol-1-yl)ethyl)benzenesulphonamide] were, in that order, 188 to 189 °C, 6.76 µM, 3710 nM, 77.5 nM and 0.0563 µM.
`NS(=O)(=O)c1ccc(CCN2C(=O)/C(=C/c3ccc(Cl)cc3)C=C2c2ccccc2)cc1` [Compound 3c, (E)-4-(2-(3-(4-chlorobenzylidene)-2-oxo-5-phenyl-2,3-dihydro-1H-pyrrol-1-yl)ethyl)benzenesulphonamide]: the melting point was in the range of 192 to 193 °C. The same molecule had a Ki in series [1] (setting [5]) of 3.25 µM. In series [2], this molecule had an inhibition constant (Ki) of 718 nM. In series [3], this molecule had a Ki of 108 nM. This molecule gave a Ki in series [4] (setting [5]) of 0.0765 µM.
Take `CCc1ccc(C2=C/C(=C\c3ccc(Cl)cc3)C(=O)N2CCc2ccc(S(N)(=O)=O)cc2)cc1` [Compound 3k, (E)-4-(2-(3-(4-chlorobenzylidene)-5-(4-ethylphenyl)-2-oxo-2,3-dihydro-1H-pyrrol-1-yl)ethyl)benzenesulphonamide]: the melting point is 186 to 187 °C. Further, the Ki in series [1] (setting [5]) was 5.93 µM. In series [2], this molecule came in with a Ki of 1620 nM. In series [3], this molecule had a Ki of 102 nM. In addition, in series [4] (setting [5]), the Ki was 0.0911 µM.
For `NS(=O)(=O)c1ccc(CCN2C(=O)/C(=C/c3ccccc3)C=C2c2ccc(Cl)cc2)cc1` [Compound 3m, (E)-4-(2-(3-benzylidene-5-(4-chlorophenyl)-2-oxo-2,3-dihydro-1H-pyrrol-1-yl)ethyl)benzenesulphonamide], in that order: 189 to 190 °C, 2.26 µM, 780 nM, 54.6 nM and 0.0617 µM.
In turn, `CC(C)(C)c1ccc(C2=C/C(=C\c3ccccc3)C(=O)N2CCc2ccc(S(N)(=O)=O)cc2)cc1` [Compound 3q, (E)-4-(2-(3-benzylidene-5-(4-(tert-butyl)phenyl)-2-oxo-2,3-dihydro-1H-pyrrol-1-yl)ethyl)benzenesulphonamide] returned a melting point of 183 to 184 °C. In series [1] (in µM), this molecule yielded a Ki of 8.5 µM. In addition, the Ki in series [1] (setting [5]) amounted to 8.5 µM. Also, the affinity in series [2], expressed as Ki, was 1650 nM. Besides, in series [3], the Ki turned out to be 468 nM. The molecule also registered a Ki in series [4] (setting [5]) of 0.396 µM.
Consider `Cc1ccc(C2=C/C(=C\c3ccc(Cl)cc3)C(=O)N2CCc2ccc(S(N)(=O)=O)cc2)cc1` [Compound 3g, (E)-4-(2-(3-(4-chlorobenzylidene)-2-oxo-5-(p-tolyl)-2,3-dihydro-1H-pyrrol-1-yl)ethyl)benzenesulphonamide], for which the melting point fell in the range of 224 to 225 °C. In series [1] (setting [5]), this molecule registered a Ki of 4.39 µM. The Ki in series [2] worked out at 942 nM. In series [3], this molecule came in with a Ki of 95.5 nM. The same molecule returned a Ki in series [4] (setting [5]) of 0.0734 µM.
The molecule `NS(=O)(=O)c1ccc(CCN2C(=O)/C(=C/c3ccc(F)cc3)C=C2c2ccc(Cl)cc2)cc1` [Compound 3n, (E)-4-(2-(5-(4-chlorophenyl)-3-(4-fluorobenzylidene)-2-oxo-2,3-dihydro-1H-pyrrol-1-yl)ethyl)benzenesulphonamide] came in with a melting point of 159 to 160 °C. In series [1] (setting [5]), this molecule came in with a Ki of 1.42 µM. The same molecule registered a Ki in series [2] of 466 nM. Moreover, the Ki in series [3] came to 41.3 nM. In series [4] (setting [5]), the Ki worked out at 0.0391 µM.
`Cc1ccc(C2=C/C(=C\c3ccccc3)C(=O)N2CCc2ccc(S(N)(=O)=O)cc2)cc1` [Compound 3e, (E)-4-(2-(3-benzylidene-2-oxo-5-(p-tolyl)-2,3-dihydro-1H-pyrrol-1-yl)ethyl)benzenesulphonamide] yielded a melting point of 189 to 190 °C. Moreover, the Ki in series [1] (setting [5]) was determined as 3.2 µM. In series [2], the Ki came to 471 nM. Besides, in series [3], the Ki turned out to be 117 nM. This molecule also showed a Ki in series [4] (setting [5]) of 0.0584 µM.
`CC(C)(C)c1ccc(C2=C/C(=C\c3ccc(F)cc3)C(=O)N2CCc2ccc(S(N)(=O)=O)cc2)cc1` [Compound 3r, (E)-4-(2-(5-(4-(tert-butyl)phenyl)-3-(4-fluorobenzylidene)-2-oxo-2,3-dihydro-1H-pyrrol-1-yl)ethyl)benzenesulphonamide]: the melting point was 187 to 188 °C. Moreover, the Ki in series [1] (setting [5]) worked out at 6 µM. Moreover, in series [2], affinity was put at a Ki of 1260 nM. The same molecule registered an inhibition constant Ki in series [3] of 418 nM. Moreover, the Ki in series [4] (setting [5]) came to 0.356 µM.
`NS(=O)(=O)c1ccc(CCN2C(=O)/C(=C/c3ccc(Br)cc3)C=C2c2ccccc2)cc1` [Compound 3d, (E)-4-(2-(3-(4-bromobenzylidene)-2-oxo-5-phenyl-2,3-dihydro-1H-pyrrol-1-yl)ethyl)benzenesulphonamide] yielded a melting point of 214 to 215 °C. This molecule registered a Ki in series [1] (setting [5]) of 4.25 µM. In series [2], this molecule showed a Ki of 1430 nM. In addition, the Ki in series [3] is 112 nM. For the same molecule, the affinity in series [4] (setting [5]) corresponds to a Ki of 0.0898 µM.
`NS(=O)(=O)c1ccc(CCN2C(=O)/C(=C/c3ccccc3)C=C2c2ccccc2)cc1` [Compound 3a, (E)-4-(2-(3-benzylidene-2-oxo-5-phenyl-2,3-dihydro-1H-pyrrol-1-yl)ethyl) benzenesulphonamide] displayed a melting point of 167 to 168 °C. In addition, the Ki in series [1] (setting [5]) was 0.634 µM. The molecule further gave a Ki in series [2] of 368 nM. Also, in series [3], the Ki was 93.8 nM. Besides, the Ki in series [4] (setting [5]) was 0.0621 µM.
As for `NS(=O)(=O)c1ccc(CCN2C(=O)/C(=C/c3ccc(Br)cc3)C=C2c2ccc(Cl)cc2)cc1` [Compound 3p, (E)-4-(2-(3-(4-bromobenzylidene)-5-(4-chlorophenyl)-2-oxo-2,3-dihydro-1H-pyrrol-1-yl)ethyl)benzenesulphonamide], the melting point lay in the range of 176 to 177 °C. The molecule further yielded a Ki in series [1] (setting [5]) of 5.87 µM. This molecule also registered a Ki in series [2] of 3850 nM. In series [3], this molecule returned a Ki of 74.3 nM. This molecule also gave a Ki in series [4] (setting [5]) of 0.0854 µM.
